Laboratory results published in article PMC11188489, “Pharmacokinetic assessment of tacrolimus in combination with deoxyschizandrin in rats” (Frontiers in Pharmacology, 2024).
Entries after “also recorded” stand apart in the source; their conditions may differ.

How the values were obtained:
[1] = Pharmacokinetics of deoxyschizandrin in rats after single and multiple administrations (UHPLC-MS/MS of plasma); type: in vivo, SD rats; settings: for AUMC0→t / AUC(0-t) / AUC(0-inf) / Cmax / MRT / Tmax / half-life: rat plasma; for AUC(0-t) / AUC(0-inf) / Cmax / MRT / Tmax / half-life: male, SD, rat, plasma
Description: The mobile phase A was acetonitrile, and mobile phase B was 0.1% formic acid in water, and the initial mobile phase of gradient elution program was consisted of 60% phase A and 40% phase B. The sample injection volume was set at 10 μL. Gradient elution program was supplied in Supplementary Table S1.
The mass spectrometry detection was achieved on an Agilent 6460A mass spectrometer with ESI source. […] The settings of the mass spectrometer source were as follows: capillary voltage 4,000 V, sheath gas flow 12 L/min, temperature 400°C, dry gas (nitrogen) flow 10 L/min and temperature 350°C, nebulizer pressure 45 psi. All analytes were detected in positive ionization mode. Collision gas (high purity liquid nitrogen) was set at 0.25 MPa. The structures of both two analytes and IS are display in Figure 1.
The pretreatment was performed for the plasma sample by one-step protein precipitation, Briefly, 100 μL sample was transferred into a 1.5 mL EP tube prior to adding with 300 μL methanol(containing 200 ng/mL IS). The mixture was vortex-mixed for 30 s before centrifugation at 17,400 g for 10 min at room temperature, and 100 μL of the supernatant was diluted with 100 μL of acetonitrile (v/v, 1:1) Then, a 10 μL aliquoted of diluted solution was injected into the UHPLC-MS/MS system for analysis.
The protocol of the animal study was approved by the Experimental Animal Ethics Committee of the Shanghai University of Traditional Chinese Medicine. Specific Pathogen Free (SPF) grade SD rats, male, 8 weeks old, 200–250 g, were obtained from the animal experiment center of Shanghai University of Traditional Chinese Medicine. After passing quarantine, the rats were adaptive fed for 2 days. Rats were fasted for 12–14 h, followed by the initiation of pharmacokinetic study of Tac and deoxyschizandrin. This animal study was carried out in accordance with the National Institutes of Health Guide for the Care and Use of Laboratory animals.
(§1) In this study, 42 rats were divided equally into seven groups of six rats each, numbered NG2201-NG2207. Among them, the NG2201 and NG2202 group was dosed with 150 mg/kg deoxyschizandrin alone to study the PK of deoxyschizandrin in rats after single and multiple doses; the NG2203 group was administrate dosed with 1.0 mg/kg of Tac; the NG2204-NG2206 groups were dosed with 75, 150, and 300 mg/kg of deoxyschizandrin plus 1.0 mg/kg Tac, respectively, and the NG2207 group was dosed with the Wuzhi capsule (approximately equal to 150 mg/kg of deoxyschizandrin) plus 1.0 mg/kg of Tac ([Teng et al., 2022]). The detailed dosing regimen is shown in Table 2, and all dose in this experiment were calculated according to clinical dose. Blood samples (approximately 300 μL for each) for PK analysis were collected into lithium–heparin tubes. The plasma sampling schedules are outlined below: Blood samples were drawn pre-dose, at 5, 10, 20 and 30 min, and at 1, 1.5, 2, 4, 8 and 24 h after drug administration. The blood samples were centrifuged at 5,000 g for 15 min at 4°C to collect plasma samples, which were placed −80 refrigerator.
The rat plasma collected from each group was pretreated according to the method in section 2.5, and exposure levels of Tac and deoxyschizandrin were determined using the above established UHPLC-MS/MS method and the PKs were calculated using DAS software using non-compartment model (version 2.0, China Pharmacological Society). The data were presented as mean ± SD.

[2] = Observation of adverse reactions in rats during 12 days of continuous administration; type: in vivo; settings: 150 mg/kg deoxyschizandrin oral
Description: as §1, with “refrigerator. […]” for “refrigerator.”

[3] = Stability of the two analytes in rat plasma under different storage conditions; type: in vitro ADME; settings: n=5
Description: To prepare the stock solution, approximately 2.00 mg of Tac, deoxyschizandrin and IS were accurately weighed and dissolved in methanol, respectively. The stock solutions of Tac and deoxyschizandrin with a final concentration of 1.00 mg/mL was obtained, and the IS stock solution was diluted to 100.00 ng/mL using methanol before use. The stock solutions were aliquoted and stored at −80°C. Combined working solutions were prepared by diluting the stock solution using 10% aqueous methanol at the following concentrations: 5.00, 10.00, 20.00, 50.00, 100.00, 200.00, 500.00, 1,000.00, and 2,000.00 ng/mL. Blank rat plasma was used to prepare the calibration standards. Quality-control (QC) samples of two analytes were prepared separately in the same manner at three concentrations, namely, 10 (low concentration), 100 (middle), 1,000 ng/mL (high), and all QC samples were stored at −80°C.
The methodology validation was completed according to FDA guidelines and Chinese Pharmacopoeia (2015 edition), and the linearity, inter- and intra-precision and accuracy, matrix effect and extraction recovery, stability and specificity of this method were validated according to previous study ([Lu et al., 2022]; [Wang et al., 2022]; [Shu et al., 2016]).

[4] = po, 150 mg/kg, NG2201: 150 mg/kg deoxyschizandrin single, D1-D2
[5] = po, 150 mg/kg, NG2202: 150 mg/kg deoxyschizandrin multiple (12 days), D11-D12

- increase of C max of deoxyschizandrin after consecutive 12 days of administration ([1]; 150 mg/kg, multiple vs single dose, rats): about 1.5 fold
- AUMC0→t ([1]; NG2201: 150 mg/kg deoxyschizandrin single, D1-D2): 4,088.71 ± 1,056.37 ng. h^2/mL
- AUMC0→t ([1]; NG2202: 150 mg/kg deoxyschizandrin multiple (12 days), D11-D12): 13,360.23 ± 8,009.79 ng. h^2/mL
- AUC(0-t) ([1]; oral, 150 mg/kg, NG2201: 150 mg/kg deoxyschizandrin, first day): 786 ± 174 ng·h/mL
- AUC(0-t) ([1]; oral, 150 mg/kg, NG2202: after 12 days of continuous administration of 150 mg/kg deoxyschizandrin): 1810 ± 707 ng·h/mL
- AUC(0-inf) [1, 4]: 806 ± 176 ng·h/mL
- AUC(0-t) [1, 4]: 786 ± 174 ng·h/mL
- Cmax [1, 4]: 148 ± 23.2 ng/mL
- MRT [1, 4]: 5.17 ± 0.33 h
- Tmax [1, 4]: 0.92 ± 0.2 h
- half-life [1, 4]: 4.48 ± 0.53 h
- AUC(0-inf) [1, 5]: 2410 ± 1720 ng·h/mL
- AUC(0-t) [1, 5]: 1810 ± 707 ng·h/mL
- Cmax [1, 5]: 229 ± 54.8 ng/mL
- MRT [1, 5]: 6.95 ± 1.42 h
- Tmax [1, 5]: 1.5 ± 1.23 h
- half-life [1, 5]: 9.1 ± 7.83 h
- Auto-sampler stability (24h, 4℃) Mean ± SD ([3]; Nominal Conc. 10 ng/mL): 10.23±0.93
- Bench-top stability (8h, RT) Mean ± SD ([3]; Nominal Conc. 10 ng/mL): 10.63±0.83
- Frozen-thaw stability (3 times) Mean ± SD ([3]; Nominal Conc. 10 ng/mL): 10.45±1.01
- Long-term stability (1 month, -80℃) Mean ± SD ([3]; Nominal Conc. 10 ng/mL): 10.37±0.25
- Auto-sampler stability (24h, 4℃) Mean ± SD ([3]; Nominal Conc. 100 ng/mL): 104.49±5.32
- Bench-top stability (8h, RT) Mean ± SD ([3]; Nominal Conc. 100 ng/mL): 102.39±2.82
- Frozen-thaw stability (3 times) Mean ± SD ([3]; Nominal Conc. 100 ng/mL): 111.56±12.48
- Long-term stability (1 month, -80℃) Mean ± SD ([3]; Nominal Conc. 100 ng/mL): 101.86±11.38
- Auto-sampler stability (24h, 4℃) Mean ± SD ([3]; Nominal Conc. 1000 ng/mL): 1024.65±13.44
- Bench-top stability (8h, RT) Mean ± SD ([3]; Nominal Conc. 1000 ng/mL): 1014.96±11.94
- Frozen-thaw stability (3 times) Mean ± SD ([3]; Nominal Conc. 1000 ng/mL): 1050.50±50.54
- Long-term stability (1 month, -80℃) Mean ± SD ([3]; Nominal Conc. 1000 ng/mL): 1012.51±45.24
Compound: COc1cc2c(c(OC)c1OC)-c1c(cc(OC)c(OC)c1OC)C[C@H](C)[C@H](C)C2 [deoxyschizandrin]
- adverse reactions [2]: No adverse reactions occurred; also recorded: no adverse effects were demonstrated
